Patent US20050176826A1, “Use of asc-1 inhibitors to treat neurological and psychiatric disorders” (H. Lundbeck A/S, priority 2002, published 2005)

Assays:
human asc-1 = molecular target: T1, human asc-1 (Homo sapiens, UniProt Q9NS82); assay: [3H]D-serine uptake into HEK293 cells expressing human asc-1; format: cell-based; settings: for inhibition of [3H]D-serine uptake (in words): HEK293 cells expressing the cloned asc-1
T1 construct: expressed in transfected cells; host or cells: HEK293 (ATCC CRL 1573), transient, vector pCI/neo
T1 sequence (Q9NS82 1-523): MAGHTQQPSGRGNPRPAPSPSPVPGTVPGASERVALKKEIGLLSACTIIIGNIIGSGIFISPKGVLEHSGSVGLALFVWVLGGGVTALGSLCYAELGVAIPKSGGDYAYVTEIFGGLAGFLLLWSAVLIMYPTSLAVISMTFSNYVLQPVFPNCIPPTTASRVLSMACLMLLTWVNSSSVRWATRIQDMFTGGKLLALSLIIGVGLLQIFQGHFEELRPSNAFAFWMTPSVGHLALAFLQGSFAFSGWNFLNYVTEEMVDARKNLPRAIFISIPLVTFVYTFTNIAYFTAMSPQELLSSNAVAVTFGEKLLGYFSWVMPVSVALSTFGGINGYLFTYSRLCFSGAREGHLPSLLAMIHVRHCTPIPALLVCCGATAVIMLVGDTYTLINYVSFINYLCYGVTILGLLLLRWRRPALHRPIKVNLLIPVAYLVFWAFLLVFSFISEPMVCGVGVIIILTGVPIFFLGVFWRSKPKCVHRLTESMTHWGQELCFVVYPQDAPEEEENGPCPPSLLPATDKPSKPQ
Protocol: Uptake was determined 2-4 days after the transfection.
(§1) Into cortical membranes: Cortex from male Wistar rats (150-200 g) was homogenized in 0.40 M sucrose and centrifuged at 1000×g for 10 min. […] Test compounds and tissue (1 mg orig. tissue/well) were added to 96 well plates and incubated with [^3H]-D-serine (specific activity=26.8 Ci/mmol, PerkinElmer, Cambridge, U.K.) (100 nM final concentration) for 5 min at 25° C. Samples were filtered on Unifilter GF/B glass fiber (Packard Biosciences, Meriden, Conn., USA) and washed with 3×0.25 mL assay buffer. Measurements of [^3H]-D-serine uptake into whole HEK293 cells expressing human asc-1 were performed in 96 well plates with similar conditions except that the cells were incubated for 15 min with radioligand and washed by dipping twice in cold assay buffer following incubation with radioligand. Accumulated radioactivity was extracted from the cells by adding 200 μL scintillation fluid/well (Ultima Gold, Packard Biosciences) and the plates were counted in a Microplates Scintillation Counter (Packard Biosciences). The D-serine uptake in samples containing test compounds was compared to controls without added compound or controls where transport via the asc-1 was inhibited by addition of e.g. 30 mM L-alanine.

[1] = molecular target: T2, D-serine-sensitive Na+-independent transporter in rat cortical membranes (Rattus norvegicus, UniProt P63116); assay: Na+-independent [3H]D-serine uptake into rat cortical membranes (synaptosomes); format: biochemical; settings: for inhibition of [3H]D-serine uptake (in words): rat cortical synaptosomes
T2 construct: from tissue; host or cells: rat cerebral cortex membranes (P2 synaptosomes), male Wistar rats
T2 sequence (P63116 1-530): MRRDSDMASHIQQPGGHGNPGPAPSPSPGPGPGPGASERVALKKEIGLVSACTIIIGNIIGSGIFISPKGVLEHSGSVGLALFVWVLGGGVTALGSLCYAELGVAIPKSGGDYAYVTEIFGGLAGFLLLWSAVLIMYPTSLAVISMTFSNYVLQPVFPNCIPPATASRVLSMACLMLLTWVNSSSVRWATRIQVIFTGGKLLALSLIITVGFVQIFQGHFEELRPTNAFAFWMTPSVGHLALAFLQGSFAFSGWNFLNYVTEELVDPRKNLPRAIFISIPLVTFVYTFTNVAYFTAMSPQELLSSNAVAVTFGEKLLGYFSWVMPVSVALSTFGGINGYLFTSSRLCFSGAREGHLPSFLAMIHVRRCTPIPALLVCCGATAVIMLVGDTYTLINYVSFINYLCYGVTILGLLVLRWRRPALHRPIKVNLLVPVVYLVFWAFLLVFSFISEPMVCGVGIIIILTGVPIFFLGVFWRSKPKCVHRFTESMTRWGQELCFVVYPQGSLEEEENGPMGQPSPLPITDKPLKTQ
T2 sequence (Q794F9 1-527 partner): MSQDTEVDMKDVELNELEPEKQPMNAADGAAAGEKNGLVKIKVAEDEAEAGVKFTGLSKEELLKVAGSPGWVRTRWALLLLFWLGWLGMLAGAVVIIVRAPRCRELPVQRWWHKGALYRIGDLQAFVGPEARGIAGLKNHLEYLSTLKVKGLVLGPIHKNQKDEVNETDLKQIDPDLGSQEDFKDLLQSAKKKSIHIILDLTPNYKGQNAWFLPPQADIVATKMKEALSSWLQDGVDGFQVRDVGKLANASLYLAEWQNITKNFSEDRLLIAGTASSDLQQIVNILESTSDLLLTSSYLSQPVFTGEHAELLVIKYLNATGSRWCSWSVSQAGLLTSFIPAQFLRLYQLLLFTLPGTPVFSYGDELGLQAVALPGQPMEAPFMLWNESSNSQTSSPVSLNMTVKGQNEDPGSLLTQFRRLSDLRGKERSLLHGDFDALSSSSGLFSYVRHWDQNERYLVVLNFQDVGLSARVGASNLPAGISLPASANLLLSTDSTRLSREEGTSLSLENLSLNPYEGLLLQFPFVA
Protocol: as §1

NMDA receptor = NMDA receptor (Homo sapiens, UniProt Q05586); settings: versus glycine; cited from earlier work

Compound | inhibition of [3H]D-serine uptake (in words) (human asc-1) | inhibition of [3H]D-serine uptake (in words) [1] | block of uptake via the asc system, including asc-1 (human asc-1; 30 mM) | block of [3H]D-serine uptake into rat cortical membranes ([1]; rat cortical membranes) | co-agonist potency relative to glycine at the allosteric site on the NMDA receptor (NMDA receptor)
N[C@@H](Cc1ccc(O)cc1)C(=O)O [L-tyrosine] | Less effective, but significant inhibition | Less effective, but significant inhibition |  |  | 
NCCCC[C@H](N)C(=O)O [L-lysine] | Inactive | Inactive |  |  | 
CC(C)C[C@H](N)C(=O)O [L-leucine] | Less effective, but significant inhibition | Less effective, but significant inhibition |  |  | 
N[C@@H](CS)C(=O)O [L-cysteine] | effective inhibition | effective inhibition |  |  | 
NCC(=O)O [L-glycine] | effective inhibition | effective inhibition |  |  | 
N[C@@H](CC(=O)O)C(=O)O [L-aspartate] | Inactive | Inactive |  |  | 
NC(=O)CC[C@H](N)C(=O)O [L-glutamine] | Inactive | Inactive |  |  | 
N[C@@H](CCC(=O)O)C(=O)O [L-glutamate] | Inactive | Inactive |  |  | 
NC(=O)C[C@H](N)C(=O)O [L-asparagine] | Less effective, but significant inhibition | Less effective, but significant inhibition |  |  | 
N[C@@H](Cc1ccccc1)C(=O)O [L-phenylalanine] | Less effective, but significant inhibition | Less effective, but significant inhibition |  |  | 
N[C@@H](CO)C(=O)O [L-serine] | effective inhibition | effective inhibition |  |  | 
CSCC[C@H](N)C(=O)O [L-methionine] | Less effective, but significant inhibition | Less effective, but significant inhibition |  |  | 
C[C@H](N)C(=O)O [L-alanine] | effective inhibition | effective inhibition | completely block | completely blocks | 
CC(C)[C@H](N)C(=O)O [L-valine] | Less effective, but significant inhibition | Less effective, but significant inhibition |  |  | 
N=C(N)NCCC[C@H](N)C(=O)O [L-arginine] | Inactive | Inactive |  |  | 
N[C@@H](CSSC[C@H](N)C(=O)O)C(=O)O [L-cystine] | Inactive | Inactive |  |  | 
CC[C@H](C)[C@H](N)C(=O)O [L-isoleucine] | Less effective, but significant inhibition | Less effective, but significant inhibition |  |  | 
C[C@@H](O)[C@H](N)C(=O)O [L-threonine] | effective inhibition | effective inhibition |  |  | 
N[C@H](CO)C(=O)O [D-serine] |  |  |  |  | 3-4 fold
O=C(O)[C@@H]1CCCN1 [L-proline] | Inactive | Inactive |  |  | 
N[C@@H](Cc1c[nH]cn1)C(=O)O [L-histidine] | Less effective, but significant inhibition | Less effective, but significant inhibition |  |  | 
